# Source: patent publication US7265129B2, “Anti-infective biaryl compounds” (priority 2002, dated 2007)
# Experiments:
# [1] = system: B. cereus ATCC 11778; assay: MIC, NCCLS broth microdilution, B. cereus; type: cell-based, Bacillus cereus
# How it was run: (§1)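 Readout is the minimal inhibition concentration, obtained by NCCLS broth microdilution in microtiter plates. Bacterial testing followed NCCLS documents M7-A4 and M11-A4 […]; the antifungal assay followed Murray's Manual of Clinical Microbiology recommendation.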
# [2] = system: S. aureus ATCC 27660; assay: MIC, NCCLS broth microdilution, S. aureus MRSA; type: cell-based, Staphylococcus aureus; settings: S. aureus ATCC 27660, methicillin resistant strain (MRSA)
# How it was run: as §1
# [3] = system: S. aureus ATCC 13709; assay: MIC, NCCLS broth microdilution, S. aureus MSSA; type: cell-based, Staphylococcus aureus; settings: S. aureus ATCC 13709, methicillin sensitive strain (MSSA)
# How it was run: as §1
# [4] = system: S. epidermidis ATCC 12228; assay: MIC, S. epidermidis; type: cell-based, Staphylococcus epidermidis; settings: Table C
# Method: (§2) Compounds according to this invention were screened for their in vitro activities against selected species of bacteria and fungi. The minimal inhibition concentration (MIC) of these compounds was determined using the National Committee for Clinical Laboratory Standards (NCCLS) broth microdilution assay in microtiter plates, as set forth in: (1) the guidelines of the National Committee for Clinical Laboratory Standards (NCCLS) Document M7-A4 (NCCLS, 1997); (2) the guidelines of the National Committee for Clinical Laboratory Standards (NCCLS) Document M11-A4 (NCCLS, 1997); and (3) the guidelines and reference method of the National Committee for Clinical Laboratory Standards (NCCLS) Document M27-T (NCCLS, 1995). For antifungal assays, the method recommended in Murray, P R., 1995 Manual of Clinical Microbiology (ASM Press, Washington, D.C.), was employed.
# (§3) Additionally, some compounds were screened against Enterococcus faccium (ATCC 51559, a vancomycin resistant strain (VRE)), Staphylococcus epidermidis (ATCC 12228), Streptococcus pneumoniae (ATCC 51422, a penicillin resistant strain (PRSP)), and/or Streptococcus pyogenes (ATCC 49399).
# [5] = system: C. albicans ATCC 38247; assay: MIC, antifungal assay, C. albicans; type: cell-based, Candida albicans
# How it was run: as §1
# [6] = MIC, Table C (organism not given); type: cell-based
# Method: as §2, §3
# [7] = system: E. faecalis ATCC 29212; assay: MIC, NCCLS broth microdilution, E. faecalis; type: cell-based, Enterococcus faecalis
# How it was run: as §1
# [8] = system: S. pneumoniae ATCC 51422; assay: MIC, S. pneumoniae PRSP; type: cell-based, Streptococcus pneumoniae; settings: Table C; S. pneumoniae ATCC 51422, penicillin resistant strain (PRSP)
# Method: as §2, §3
# [9] = system: E. faecium ATCC 51559; assay: MIC, E. faecium VRE; type: cell-based, Enterococcus faccium; settings: Table C; E. faecium ATCC 51559, vancomycin resistant strain (VRE)
# Method: as §2, §3
# [10] = system: S. pyogenes ATCC 4399; assay: MIC, S. pyogenes; type: cell-based, Streptococcus pyogenes; settings: Table C
# Method: as §2, §3
# [11] = system: S. pneumoniae ATCC 49619; assay: MIC, NCCLS broth microdilution, S. pneumoniae; type: cell-based, Streptococcus pneumoniae
# How it was run: as §1
# [12] = system: S. aureus ATCC 33591; assay: MIC, NCCLS broth microdilution, S. aureus ATCC 33591; type: cell-based, Staphylococcus aureus
# How it was run: as §1
smiles,measurement,setting,value
Cn1cc(NC(=O)c2cc(NC(=O)c3ccc(Cl)cc3F)cn2CCCN2CCC(F)(F)CC2)cc1-c1nc2cccnc2[nH]1 [Compound A-43],"Minimum Inhibitory Concentration (MIC), organism A",[1],+++ (MIC ≦ 4 μg/mL)
same,"Minimum Inhibitory Concentration (MIC), organism E",[2],+++ (MIC ≦ 4 μg/mL)
same,"Minimum Inhibitory Concentration (MIC), organism D",[3],++ (4 < MIC < 12 μg/mL)
same,"Minimum Inhibitory Concentration (MIC), organism B",[4],+++ (MIC ≦ 4 pg/mL)
same,"Minimum Inhibitory Concentration (MIC), organism B",[5],>32 µg/mL
same,"Minimum Inhibitory Concentration (MIC), organism E",[6],+++ (MIC ≦ 4 pg/mL)
same,"Minimum Inhibitory Concentration (MIC), organism C",[7],++ (4 < MIC < 12 μg/mL)
same,"Minimum Inhibitory Concentration (MIC), organism C",[8],++ (4 < MIC < 12 μg/mL)
same,"Minimum Inhibitory Concentration (MIC), organism A",[9],+++ (MIC ≦ 4 pg/mL)
same,"Minimum Inhibitory Concentration (MIC), organism D",[10],++ (4 < MIC < 12 μg/mL)
same,"Minimum Inhibitory Concentration (MIC), organism G",[11],+++ (MIC ≦ 4 μg/mL)
same,"Minimum Inhibitory Concentration (MIC), organism F",[12],++ (4 < MIC < 12 μg/mL)
